Experimental findings from patent US7998987B2, “Inhibitors of c-Met and uses thereof” (Vertex Pharmaceuticals Incorporated, priority 2005, dated 2011) are described below.

In general, Ki refers to the equilibrium dissociation constant of an inhibitor or competing ligand from its target.

c-Met, sequence (P08581 25-1390): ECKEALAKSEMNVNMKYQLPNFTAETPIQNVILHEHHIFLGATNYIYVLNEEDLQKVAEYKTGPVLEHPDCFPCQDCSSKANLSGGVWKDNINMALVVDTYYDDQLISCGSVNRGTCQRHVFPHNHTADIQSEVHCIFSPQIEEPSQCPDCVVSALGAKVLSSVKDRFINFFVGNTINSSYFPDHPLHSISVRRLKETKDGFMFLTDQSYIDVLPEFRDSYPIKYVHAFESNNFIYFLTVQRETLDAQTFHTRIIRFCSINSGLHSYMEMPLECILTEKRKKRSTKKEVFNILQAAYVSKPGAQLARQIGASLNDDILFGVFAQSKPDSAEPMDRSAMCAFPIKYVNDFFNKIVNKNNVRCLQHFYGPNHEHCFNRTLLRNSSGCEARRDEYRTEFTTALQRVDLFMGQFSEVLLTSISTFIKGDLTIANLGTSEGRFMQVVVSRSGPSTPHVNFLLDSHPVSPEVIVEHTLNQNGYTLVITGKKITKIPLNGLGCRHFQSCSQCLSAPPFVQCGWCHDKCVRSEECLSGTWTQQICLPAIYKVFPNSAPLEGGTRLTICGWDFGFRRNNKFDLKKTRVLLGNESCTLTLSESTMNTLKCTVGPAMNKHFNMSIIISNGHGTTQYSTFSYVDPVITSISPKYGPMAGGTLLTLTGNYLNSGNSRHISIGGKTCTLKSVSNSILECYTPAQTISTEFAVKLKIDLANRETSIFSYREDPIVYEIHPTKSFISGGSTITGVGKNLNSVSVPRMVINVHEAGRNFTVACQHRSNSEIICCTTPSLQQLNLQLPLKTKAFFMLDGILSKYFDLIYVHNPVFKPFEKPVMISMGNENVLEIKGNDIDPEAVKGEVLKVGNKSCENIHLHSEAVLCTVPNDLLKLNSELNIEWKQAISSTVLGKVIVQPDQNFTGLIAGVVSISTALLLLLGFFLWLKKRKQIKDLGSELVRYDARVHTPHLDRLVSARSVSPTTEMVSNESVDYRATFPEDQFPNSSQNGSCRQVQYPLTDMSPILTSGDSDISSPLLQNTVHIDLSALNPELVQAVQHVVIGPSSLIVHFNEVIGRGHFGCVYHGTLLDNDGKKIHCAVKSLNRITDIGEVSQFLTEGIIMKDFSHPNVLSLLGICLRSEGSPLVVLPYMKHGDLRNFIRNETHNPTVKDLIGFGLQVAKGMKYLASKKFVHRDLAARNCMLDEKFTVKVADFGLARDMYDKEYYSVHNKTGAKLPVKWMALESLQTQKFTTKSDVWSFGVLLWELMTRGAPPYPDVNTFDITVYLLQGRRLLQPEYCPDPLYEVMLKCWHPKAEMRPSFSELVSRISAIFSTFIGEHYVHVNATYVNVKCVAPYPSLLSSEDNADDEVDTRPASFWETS

One assay concerns the target c-Met (Homo sapiens, UniProt P08581). In words: Ki determination for the inhibition of c-Met kinase activity (standard coupled enzyme system). It counts as biochemical. The following applies: coupled enzyme system, 200 μM ATP, 80 nM c-Met, 30° C.; read-out: c-Met Ki. How it is done:
Ki Determination for the Inhibition of c-Met
Reactions were carried out in a solution containing 100 mM HEPES (pH 7.5), 10 mM MgCl2, 25 mM NaCl, 300 μM NADH, 1 mM DTT, and 1.5% DMSO. Final substrate concentrations in the assay were 200 μM ATP (Sigma Chemicals, St Louis, Mo.) and 10 μM polyGluTyr (Sigma Chemical Company, St. Louis). Reactions were carried out at 30° C. and 80 nM c-Met. Final concentrations of the components of the coupled enzyme system were 2.5 mM phosphoenolpyruvate, 300 μM NADH, 30 μg/ml pyruvate kinase and 10 μg/ml lactate dehydrogenase.
An assay stock buffer solution was prepared containing all of the reagents listed above with the exception of ATP and a test compound of the present invention. […] The reaction was initiated by the addition of 20 μL of ATP (final concentration 200 μM). Rates of reaction were obtained using a Molecular Devices Spectramax plate reader (Sunnyvale, Calif.) over 10 minutes at 30° C. The Ki values were determined from the rate data as a function of inhibitor concentration.
On to `Oc1ccc(Cc2nnc3ccc(Nc4cc(Cl)cc(Cl)c4)nn23)cc1` [Compound 294], for which the Ki is under 0.1 µM. For the compound `c1ccc(C2=Nn3c(Cc4ccncc4)nnc3SC2)cc1` [Compound 529], the Ki is over 2 µM.

As for `C[C@@H](c1ccc(O)cc1)c1nnc2ccc(Nc3ccnn3C)nn12` [Compound 505], the Ki is 0.1 to 2 µM. In the case of `COCCC(=O)N[C@@H]1CCCC[C@H]1Nc1ccc2nnc([C@@H](C)c3ccc(O)cc3)n2n1` [Compound 451], the Ki was over 2 µM. The same measure, in the same setting: the value for `COc1cccc(NCc2nnc3ccc(Nc4cccc(Cl)c4)nn23)c1` [Compound 336] was 0.1 to 2 µM; that for `C[C@@H](c1ccc(O)cc1)c1nnc2ccc(Nc3cc(Cl)cnc3Cl)nn12` [Compound 509] was under 0.1 µM; that for `COc1cccc(Nc2ccc3nnc(Cc4ccc(O)c(F)c4)n3n2)c1` [Compound 293] was 0.1 to 2 µM. Take `Oc1ccc(Cc2nnc3n2N=C(c2ccccc2)CS3)cc1` [Compound 522]: the Ki is under 0.1 µM. Regarding `Oc1ccc(Cc2nnc3n2N=C(c2ccncc2)CS3)cc1` [Compound 538], the Ki fell in the range of 0.1 to 2 µM.

Turning to `O=C(Cc1nnc2ccc(Nc3cccc(Cl)c3)nn12)c1cccnc1` [Compound 316], the Ki is over 2 µM. Still for that read-out and setting: the value for `CCC(c1ccc(OC)cc1)c1nnc2ccc(Nc3cccc(Cl)c3)nn12` (stereo not drawn) [Compound 357] was under 0.1 µM.

As for `Clc1cccc(Nc2ccc3nnc(CNc4n[nH]c5ncccc45)n3n2)c1` [Compound 519], the Ki was under 0.1 µM.

On to `Nc1cccc(Cc2nnc3ccc(Nc4cccc(Cl)c4)nn23)c1` [Compound 317], for which the Ki was over 2 µM. As to `Cc1ccc(OCc2nnc3ccc(Nc4cccc(Cl)c4)nn23)cn1` [Compound 372], the Ki is over 2 µM. Still for that read-out and setting: the value for `COc1ccc(NCc2nnc3ccc(Nc4cccc(Cl)c4)nn23)cc1OC` [Compound 337] was over 2 µM; that for `Oc1cccc(NCc2nnc3ccc(Nc4cccc(Cl)c4)nn23)c1` [Compound 338] was 0.1 to 2 µM; that for `Cc1cccc(SCc2nnc3ccc(Nc4cccc(Cl)c4)nn23)c1` [Compound 388] was over 2 µM. On the same count and under the same terms, for `Nc1ncnc2c1ccn2Cc1nnc2ccc(Nc3cccc(Cl)c3)nn12` [Compound 452] the value was 0.1 to 2 µM; for `CC(=O)N[C@@H]1CCCC[C@@H]1Nc1ccc2nnc([C@@H](C)c3ccc(O)cc3)n2n1` [Compound 444], 0.1 to 2 µM; for `Oc1ccc(Cc2nnc3ccc(Nc4cc(Cl)ccc4F)nn23)cc1` [Compound 359], under 0.1 µM. `CC(=O)Nc1ccc2nnc(Cc3ccc(O)cc3)n2n1` [Compound 396]: the Ki is over 2 µM. The same measure, in the same setting: for `Nc1ccc(Cc2nnc3ccc(Nc4cccc(Cl)c4)nn23)cc1` [Compound 456] the value was over 2 µM. As for `CCOC(=O)c1sc(Nc2ccc3nnc([C@@H](C)c4ccc(O)cc4)n3n2)nc1C` [Compound 513], the Ki was in the range of 0.1 to 2 µM.

For the compound `Oc1ccc(Cc2nnc3ccc(NC4CCNCC4)nn23)cc1` [Compound 322], the Ki was over 2 µM. Take `Fc1ccc2[nH]cc(Cc3nnc4ccc(Nc5cccc(Cl)c5)nn34)c2c1` [Compound 459]: the Ki was over 2 µM. Consider `COCCC(=O)N[C@@H]1CCCC[C@@H]1Nc1ccc2nnc([C@@H](C)c3ccc(O)cc3)n2n1` [Compound 445], for which the Ki is over 2 µM. Still for that read-out and setting: for `Fc1ccc(C2(c3nnc4ccc(Nc5cccc(Cl)c5)nn34)CCCC2)cc1` [Compound 416] the value was over 2 µM; for `Fc1ccc(OCc2nnc3ccc(Nc4cccc(Cl)c4)nn23)cc1F` [Compound 378], over 2 µM. Turning to `c1csc(C2=Nn3c(Cc4ccc5c(c4)OCO5)nnc3SC2)c1` [Compound 544], the Ki was under 0.1 µM. With `COc1ccc(Cc2nnc3ccc(Nc4cc(C)cc(C)c4)nn23)cc1` [Compound 297], the Ki fell in the range of 0.1 to 2 µM. In the case of `O=[N+]([O-])c1ncccc1OCc1nnc2ccc(Nc3cccc(Cl)c3)nn12` [Compound 408], the Ki was over 2 µM. The same measure, in the same setting: the value for `CS(=O)(=O)c1ccc(Cc2nnc3ccc(Nc4cccc(Cl)c4)nn23)cc1` [Compound 364] was over 2 µM; that for `Fc1ccc(Cc2nnc3n2N=C(c2cccs2)CS3)cc1` [Compound 546] was 0.1 to 2 µM.

The assay is the same for the next values; noted with them: coupled enzyme system, 200 μM ATP, 10 μM polyGluTyr, 80 nM c-Met, 30° C.; read-out: c-Met Ki.
For `Oc1cccc(CCc2nnc3sc(Nc4cccc(Cl)c4F)nn23)c1` [Compound 109], the Ki is 0.1 to 2 µM. As for `Oc1ccc(Cc2nnc3ccc(Nc4cc(F)cc(F)c4)nn23)cc1` [Compound 250], the Ki was under 0.1 µM. On the same count and under the same terms, for `CN1CCC(Nc2ccc3nnc(Cc4ccc(O)cc4)n3n2)CC1` [Compound 283] the value was 0.1 to 2 µM. The same measure, in the same setting: for `Cc1ccc(Nc2nn3c(Cc4ccc(O)cc4)nnc3s2)cc1Cl` [Compound 73] the value was 0.1 to 2 µM. In the case of `COc1ccc(Cc2nnc3sc(CNC(C)=O)nn23)cc1` [Compound 23], the Ki is over 2 µM. Same read-out and setting: for `CC1CCCC(Nc2ccc3nnc(Cc4ccc(O)cc4)n3n2)C1` (stereo not drawn) [Compound 284] the value was under 0.1 µM. Consider `Oc1cccc(CCc2nnc3sc(Nc4cccc(Cl)c4)nn23)c1` [Compound 92], for which the Ki is over 2 µM. `Oc1cccc(Cc2nnc3sc(Nc4cccc(F)c4F)nn23)c1` [Compound 123]: the Ki was 0.1 to 2 µM. Same read-out and setting: for `NC(=O)C1CCCN(c2ccc3nnc(Cc4ccc(O)cc4)n3n2)C1` (stereo not drawn) [Compound 179] the value was over 2 µM; for `Oc1ccc(Cc2nnc3ccc(NC4CCCC4)nn23)cc1` [Compound 269], 0.1 to 2 µM. The same measure, in the same setting: for `Oc1ccc(Cc2nnc3ccc(N[C@@H]4C[C@H]4c4ccccc4)nn23)cc1` [Compound 192] the value was over 2 µM. Still for that read-out and setting: for `O=C(Nc1nn2c(Cc3ccc(O)cc3)nnc2s1)c1ccccc1` [Compound 57] the value was over 2 µM; for `CC(O)c1cccc(Nc2ccc3nnc(Cc4ccc(O)cc4)n3n2)c1` (stereo not drawn) [Compound 255], under 0.1 µM. `CCc1cccc(Nc2ccc3nnc(Cc4ccncc4)n3n2)c1` [Compound 222]: the Ki is over 2 µM.

With `C[C@@H](c1ccc(OC(=O)[C@@H](C)N)cc1)c1nnc2sc(Nc3cccc(F)c3)nn12` [Compound 166], the Ki was under 0.1 µM. On the same count and under the same terms, for `COC(=O)c1cccc(Nc2nn3c(Cc4ccc(O)cc4)nnc3s2)c1` [Compound 61] the value was under 0.1 µM; for `COc1cccc(Nc2nn3c(C(C)c4ccc(O)cc4)nnc3s2)c1` (stereo not drawn) [Compound 37], under 0.1 µM. As to `Fc1cc(F)cc(Nc2nn3c(Cc4ccc5c(c4)OCO5)nnc3s2)c1` [Compound 127], the Ki was under 0.1 µM. On the same count and under the same terms, the value for `Clc1cccc(Nc2ccc3nnc(Cc4ccncc4)n3n2)c1` [Compound 240] was 0.1 to 2 µM; that for `Oc1ccc(Cc2nnc3ccc(NCCCn4ccnc4)nn23)cc1` [Compound 180] was 0.1 to 2 µM; that for `CNC(=O)c1cccc(Nc2ccc3nnc(Cc4ccc(O)c(F)c4)n3n2)c1` [Compound 233] was 0.1 to 2 µM. As to `Cc1cc(C)cc(Nc2ccc3nnc(Cc4ccc5c(c4)OCO5)n3n2)c1` [Compound 248], the Ki was 0.1 to 2 µM. Still for that read-out and setting: for `CC(c1ccc(O)cc1)c1nnc2sc(Nc3cccc(F)c3F)nn12` (stereo not drawn) [Compound 101] the value was under 0.1 µM; for `Oc1ccc(Cc2nnc3sc(Nc4ccccn4)nn23)cc1` [Compound 10], over 2 µM; for `CC(O)c1cccc(Nc2ccc3nnc(Cc4ccc(O)c(F)c4)n3n2)c1` (stereo not drawn) [Compound 256], 0.1 to 2 µM.

On to `CN(c1ccc2nnc(Cc3ccc(O)cc3)n2n1)C1CCCCC1` [Compound 196], for which the Ki lay within 0.1 to 2 µM. Still for that read-out and setting: the value for `COc1ccc(Cc2nnc3ccc(-c4ccccc4)nn23)cc1OC` [Compound 206, 3-(3,4-dimethoxybenzyl)-6-phenyl-[1,2,4]triazolo[4,3-b]pyridazine] was over 2 µM; that for `CN(C)c1nn2c(Cc3ccc(O)cc3)nnc2s1` [Compound 41] was over 2 µM; that for `Cc1cc(Nc2ccc3nnc(Cc4ccc(O)cc4)n3n2)ccc1Cl` [Compound 215] was under 0.1 µM. Same read-out and setting: the value for `Oc1ccc(Cc2nnc3ccc(Cl)nn23)cc1` [Compound 174] was 0.1 to 2 µM; that for `Oc1ccc(Cc2nnc3ccc(NC4c5ccccc5CC4O)nn23)cc1` (stereo not drawn) [Compound 217] was 0.1 to 2 µM. The same measure, in the same setting: the value for `Oc1cccc(Cc2nnc3sc(Nc4cccc(F)c4)nn23)c1` [Compound 122] was 0.1 to 2 µM; that for `O=c1ccn(Cc2nnc3ccc(-c4ccccc4)nn23)cc1` [Compound 218] was over 2 µM; that for `Oc1ccc(Cc2nnc3ccc(N4CCC(c5ccccc5)C4)nn23)cc1` (stereo not drawn) [Compound 201] was over 2 µM. Take `C[C@@H](c1ccc(O)cc1)c1nnc2sc(Nc3ccc(Cl)cc3)nn12` [Compound 117]: the Ki is under 0.1 µM. Regarding `FC(F)(F)c1cccc(Nc2ccc3nnc(Cc4ccncc4)n3n2)c1` [Compound 227], the Ki was in the range of 0.1 to 2 µM.

As for `C[C@H](c1ccc(O)cc1)c1nnc2sc(Nc3cccc(F)c3)nn12` [Compound 106], the Ki was under 0.1 µM. Take `CC(Oc1ccc2ncccc2c1)c1nnc2sc(Nc3cccc(Cl)c3)nn12` (stereo not drawn) [Compound 163]: the Ki was over 2 µM. Still for that read-out and setting: for `COc1ccc(Cc2nnc3ccc(Nc4cc(F)cc(F)c4)nn23)cc1` [Compound 252] the value was under 0.1 µM; for `Fc1ccc(Cc2nnc3sc(Nc4cccc(Cl)c4)nn23)cc1` [Compound 171], under 0.1 µM; for `CNc1nn2c(Cc3ccc(O)cc3)nnc2s1` [Compound 14], 0.1 to 2 µM. Regarding `Fc1c(Cl)cccc1Nc1nn2c(Cc3ccc4c(c3)OCO4)nnc2s1` [Compound 126], the Ki is 0.1 to 2 µM.
